Reference: patent US20080188680A1, “Process Improvement Using Solubility Characteristics” (priority 2005, published 2008)

Assays:
[1] = Gravimetric solubility of diester in methanol (saturated solution); format: physicochemical
Description: The solubility of dimethyl-5-nitrophthalate (“diester”) in methanol was determined through the normal boiling of methanol, and presented in the following table:
Using glass pressure test tubes immersed in boiling water, an additional point for the solubility of diester at 100° C. was measured to be about 58 wt % diester.
Generally, the solubility was determined gravimetrically. A dilute slurry of diester and methanol was heated to a desired temperature. As needed, more diester solids were added to maintain a dilute slurry. The slurry was heated to a known temperature and stirred for approximately 15-30 minutes to assure the diester solids were equilibrated and the solution was saturated. Then, the stirring was stopped and the diester solids were allowed to settle. A sample of the supernatant liquid was obtained, the liquid was evaporated and the weight of the residual diester was measured. The weight of the residual diester solid was used to calculate the solubility of the diester solid in the methanol. This procedure was repeated for several different temperatures. Then, from the highest temperature, the procedure was repeated except the slurry was cooled to each sampling point and methanol was added instead of diester solids as necessary to maintain a dilute slurry. The difference in the solubility data sets between the heating data set and the cooling data set is an indication of how well equilibrium was obtained.

[2] = Activity coefficient of diester in saturated methanol solution, transformed from the solubility data; format: physicochemical; set-up: key: γ = ideal mole-fraction solubility / actual mole-fraction solubility
Text: Solubility data can be compared to the ideal solubility. Two component solubility data (solute and solvent) at various temperatures can be easily calculated as a mole fraction of the solute in solution. The ratio of the mole fraction ideal solubility, xsolute ideal (calculated at the same temperature as the solubility data point) to each mole fraction solubility data point, xsolute actual is the activity coefficient, γsolute. These relationships are expressed mathematically, per equation (2)
In order to solve equation (3) for the activity coefficient, three experimental values are necessary: (i) the melting point of the solute, (ii) the heat of fusion of the solute in cal/g·mol and (iii) at least one value for the solubility of the specific solute in a specific solvent. Assuming the heat of fusion of the solute is constant over the range of temperatures, the relationship in equation (3) allows the mathematical transformation of the temperature and solubility data into an activity coefficient for the solute at each temperature. The terms in equation (3) are defined as follows: γsolute is the activity coefficient of the solute, xsolute is the mole fraction of the solute at a given temperature, T, in K; −ΔH^Fsolute is the heat of fusion in cal/g·mol of the solute, R is the ideal gas constant in cal/K·mol, T is the temperature of a given value for xsolute in K; and Tm(solute) is the melting temperature of the solute in K.
To interpret the solubility information, additional physical properties of diester were measured. The melting point was 124° C. (123-125° C.). The heat of fusion was 7422 cal/g·mole.
The solubility of diester, being a non-electrolyte, would obey the following thermodynamic relationship.
This relationship allows the weight % solubility versus temperature data to be mathematically transformed into an activity coefficient versus temperature data. The corresponding activity coefficient for each solubility data point is as follows: […]

SMILES: COC(=O)c1cc(C(=O)OC)cc([N+](=O)[O-])c1 [Diester, dimethyl-5-nitro-isophthalate]
- solubility ([1]; 25° C.): about 1 wt. %
- wt % Diester (solubility in methanol) ([1]; methanol, 25.5 C): 1.0% wt %
- wt % Diester (solubility in methanol) ([1]; methanol, 31.1 C): 1.2% wt %
- wt % Diester (solubility in methanol) ([1]; methanol, 34.1 C): 1.4% wt %
- wt % Diester (solubility in methanol) ([1]; methanol, 34.6 C): 1.5% wt %
- wt % Diester (solubility in methanol) ([1]; methanol, 39.6 C): 1.9% wt %
- wt % Diester (solubility in methanol) ([1]; methanol, 44.0 C): 2.3% wt %
- wt % Diester (solubility in methanol) ([1]; methanol, 44.3 C): 2.3% wt %
- wt % Diester (solubility in methanol) ([1]; methanol, 52.4 C): 3.5% wt %
- wt % Diester (solubility in methanol) ([1]; methanol, 54.1 C): 3.7% wt %
- wt % Diester (solubility in methanol) ([1]; methanol, 61.2 C): 5.7% wt %
- wt % Diester (solubility in methanol) ([1]; methanol, 65.3 C): 7.0% wt %
- wt % Diester (solubility in methanol) ([1]; methanol, 65.4 C): 7.0% wt %
- wt % Diester (solubility in methanol) ([1]; methanol, 100 C, glass pressure test tubes in boiling water): 58.0% wt %
- wt % Diester (solubility in methanol) ([1]; methanol, 100 C, glass pressure test tubes in boiling water, listed as diester): about 58 wt %
- wt % Diester (solubility in methanol) ([1]; methanol, 100 C, glass pressure test tubes in boiling water, listed as dimethyl-5-nitro-isophthalate): about 58 wt %
- maximum solubility obtained below the normal boiling point of methanol ([1]; methanol, below normal boiling point): 7 wt. %
- concentration of diester solutions obtained ([1]; methanol, temperature above 100° C.): greater than 70 wt. %
- Activ Coef ([2]; 25.5 C): 36.3
- Activ Coef ([2]; 31.1 C): 33.7
- Activ Coef ([2]; 34.1 C): 32.4
- Activ Coef ([2]; 34.6 C): 32.1
- Activ Coef ([2]; 39.6 C): 30.1
- Activ Coef ([2]; 44.0 C): 28.4
- Activ Coef ([2]; 44.3 C): 28.3
- Activ Coef ([2]; 52.4 C): 25.3
- Activ Coef ([2]; 54.1 C): 24.7
- Activ Coef ([2]; 61.2 C): 21.9
- Activ Coef ([2]; 65.3 C): 20.4
- Activ Coef ([2]; 65.4 C): 20.5
- Activ Coef ([2]; 100.0 C): 3.5
